Counter-ions that a name gives are not always drawn. Like-named read-outs stand apart in the source and are kept apart here.
How the values were obtained:
Format in all cases: cell-based, human
[1] = test system: HL-60 (Acute Promyelocytic Leukemia); test: Cell viability analysis, leukemia HL-60; details: Homo sapiens
[2] = test system: MKN-45 (Gastric Adenocarcinoma); test: Cell viability analysis, gastric cancer MKN-45; details: Homo sapiens
[3] = test system: PC3 (p53−) (Prostate Adenocarcinoma); test: Cell viability analysis, prostate cancer PC3; details: Homo sapiens
[4] = test system: LoVo (Colorectal Adenocarcinoma); test: Cell viability analysis, colon cancer LoVo; details: Homo sapiens, LoVo
[5] = test system: AGS (Gastric Adenocarcinoma); test: Cell viability analysis, gastric cancer AGS; details: Homo sapiens
[6] = test system: HI650 (Lung Adenocarcinoma); test: Cell viability analysis, lung cancer HI650; details: Homo sapiens
[7] = test system: A549 (Lung Adenocarcinoma); test: Cell viability analysis, lung cancer A549; details: Homo sapiens
[8] = test system: TSGH-8301 (Urinary Bladder Carcinoma); test: Cell viability analysis, bladder cancer TSGH-8301; details: Homo sapiens
[9] = test system: A375 (Amelanotic Melanoma); test: Cell viability analysis, skin cancer A375; details: Homo sapiens
[10] = test system: HepG2 (Hepatocellular Carcinoma); test: Cell viability analysis, hepatic cancer HepG2; details: Homo sapiens
[11] = test system: HeLa (Cervix Adenocarcinoma); test: Cell viability analysis, cervical cancer HeLa; details: Homo sapiens, HeLa
cancer cell lines = test: Cell viability analysis (WST-1) on cancer cell lines; details: drug 10 μM, 72 hours, WST-1; Table 3
[12] = test system: MCF7 (Mammary Gland, Adenocarcinoma); test: Cell viability analysis, breast cancer MCF7; details: Homo sapiens
[13] = HL-60, 72 h, drug 10 μM, 72 hours, WST-1, OD450 nm, read-out: cell viability (survival rate), HL-60
[14] = MKN-45, 72 h, drug 10 μM, 72 hours, WST-1, OD450 nm, read-out: cell viability (survival rate), MKN-45
[15] = 72 h, drug 10 μM, 72 hours, WST-1, OD450 nm, read-out: cell viability (survival rate), PC3
[16] = 72 h, read-out: cell viability (survival rate), LoVo, drug 10 μM, 72 hours, WST-1, OD450 nm
[17] = 72 h, drug 10 μM, 72 hours, WST-1, OD450 nm, read-out: cell viability (survival rate), AGS
[18] = NCI-H1650, 72 h, drug 10 μM, 72 hours, WST-1, OD450 nm, read-out: cell viability (survival rate), H1650
[19] = A549, 72 h, drug 10 μM, 72 hours, WST-1, OD450 nm, read-out: cell viability (survival rate), A549
[20] = 72 h, drug 10 μM, 72 hours, WST-1, OD450 nm, read-out: cell viability (survival rate), TSGH
[21] = A-375, 72 h, drug 10 μM, 72 hours, WST-1, OD450 nm, read-out: cell viability (survival rate), A375
[22] = HepG2, 72 h, drug 10 μM, 72 hours, WST-1, OD450 nm, read-out: cell viability (survival rate), HepG2
[23] = 72 h, drug 10 μM, 72 hours, WST-1, OD450 nm, read-out: cell viability (survival rate), HeLa
[24] = MCF7, 72 h, drug 10 μM, 72 hours, WST-1, OD450 nm, read-out: cell viability (survival rate), MCF7
[25] = HL-60, 72 h, read-out: cell viability (survival rate), HL-60, drug 10 μM, 72 hours, WST-1, OD450 nm
[26] = MKN-45, 72 h, read-out: cell viability (survival rate), MKN-45, drug 10 μM, 72 hours, WST-1, OD450 nm
[27] = 72 h, read-out: cell viability (survival rate), PC3, drug 10 μM, 72 hours, WST-1, OD450 nm
[28] = 72 h, read-out: cell viability (survival rate), AGS, drug 10 μM, 72 hours, WST-1, OD450 nm
[29] = NCI-H1650, 72 h, read-out: cell viability (survival rate), H1650, drug 10 μM, 72 hours, WST-1, OD450 nm
[30] = A549, 72 h, read-out: cell viability (survival rate), A549, drug 10 μM, 72 hours, WST-1, OD450 nm
[31] = 72 h, read-out: cell viability (survival rate), TSGH, drug 10 μM, 72 hours, WST-1, OD450 nm
[32] = A-375, 72 h, read-out: cell viability (survival rate), A375, drug 10 μM, 72 hours, WST-1, OD450 nm
[33] = HepG2, 72 h, read-out: cell viability (survival rate), HepG2, drug 10 μM, 72 hours, WST-1, OD450 nm
[34] = 72 h, read-out: cell viability (survival rate), HeLa, drug 10 μM, 72 hours, WST-1, OD450 nm
[35] = MCF7, 72 h, read-out: cell viability (survival rate), MCF7, drug 10 μM, 72 hours, WST-1, OD450 nm

| SMILES | viability at 10 µM [4, 16] [%] | inhibition effect on different cancer cell lines (cancer cell lines) | viability at 10 µM [1, 25] [%] | viability at 10 µM [2, 26] [%] | viability at 10 µM [3, 27] [%] | viability at 10 µM [5, 28] [%] | viability at 10 µM [6, 29] [%] | viability at 10 µM [7, 30] [%] | viability at 10 µM [8, 31] [%] | viability at 10 µM [9, 32] [%] | viability at 10 µM [10, 33] [%] | viability at 10 µM [11, 34] [%] | viability at 10 µM [12, 35] [%] | further results |
| --- | --- | --- | --- | --- | --- | --- | --- | --- | --- | --- | --- | --- | --- | --- |
| CCCc1cc(C(N)=S)ccn1 [Protionamide (Prothionamide), Protionamide] | 85.6 | significant inhibition effect |  |  |  |  |  |  |  |  |  |  |  | viability at 10 µM [1, 13]: 97.6%; viability at 10 µM [2, 14]: 77.6%; viability at 10 µM [3, 15]: 45.2%; viability at 10 µM [5, 17]: 85.9%; viability at 10 µM [6, 18]: 85%; viability at 10 µM [7, 19]: 66.2%; viability at 10 µM [8, 20]: 103%; viability at 10 µM [9, 21]: 84.9%; viability at 10 µM [10, 22]: 118%; viability at 10 µM [11, 23]: 97.5%; viability at 10 µM [12, 24]: 51.2% |
| O=C(N/N=C/c1ccc([N+](=O)[O-])o1)c1ccc(O)cc1 [Nifuroxazide] | 58.3 | significant inhibition effect | 38.8 | 51 | 92 | 36.7 | 57.6 | 33.2 | 56.2 | 51.6 | 73 | 66.6 | 80.1 |  |
| Cc1cc(=O)n(-c2ccccc2)n1C [Antipyrine] |  | significant inhibition effect |  |  |  |  |  |  |  |  |  |  |  | viability at 10 µM ([1]; HL-60, drug 10 μM, 72 hours, WST-1, OD450 nm, read-out: cell viability (survival rate), HL-60): 102%; viability at 10 µM ([2]; MKN-45, drug 10 μM, 72 hours, WST-1, OD450 nm, read-out: cell viability (survival rate), MKN-45): 109%; viability at 10 µM ([3]; drug 10 μM, 72 hours, WST-1, OD450 nm, read-out: cell viability (survival rate), PC3): 76.8%; viability at 10 µM ([4]; drug 10 μM, 72 hours, WST-1, OD450 nm, read-out: cell viability (survival rate), LoVo): 97.1%; viability at 10 µM ([5]; drug 10 μM, 72 hours, WST-1, OD450 nm, read-out: cell viability (survival rate), AGS): 109%; viability at 10 µM ([6]; NCI-H1650, drug 10 μM, 72 hours, WST-1, OD450 nm, read-out: cell viability (survival rate), H1650): 57.3%; viability at 10 µM ([7]; A549, drug 10 μM, 72 hours, WST-1, OD450 nm, read-out: cell viability (survival rate), A549): 76.4%; viability at 10 µM ([8]; drug 10 μM, 72 hours, WST-1, OD450 nm, read-out: cell viability (survival rate), TSGH): 90.1%; viability at 10 µM ([9]; A-375, drug 10 μM, 72 hours, WST-1, OD450 nm, read-out: cell viability (survival rate), A375): 77.9%; viability at 10 µM ([10]; HepG2, drug 10 μM, 72 hours, WST-1, OD450 nm, read-out: cell viability (survival rate), HepG2): 105%; viability at 10 µM ([11]; drug 10 μM, 72 hours, WST-1, OD450 nm, read-out: cell viability (survival rate), HeLa): 76.8%; viability at 10 µM ([12]; MCF7, drug 10 μM, 72 hours, WST-1, OD450 nm, read-out: cell viability (survival rate), MCF7): 61.3% |
| CCn1cc(C(=O)O)c(=O)c2cc(F)c(N3CCNCC3)nc21 [Enoxacin (Penetrex), Enoxacin] | 83.8 | significant inhibition effect |  |  |  |  |  |  |  |  |  |  |  | viability at 10 µM [1, 13]: 108%; viability at 10 µM [2, 14]: 54.3%; viability at 10 µM [3, 15]: 112%; viability at 10 µM [5, 17]: 111%; viability at 10 µM [6, 18]: 92.3%; viability at 10 µM [7, 19]: 45.8%; viability at 10 µM [8, 20]: 90.4%; viability at 10 µM [9, 21]: 66.9%; viability at 10 µM [10, 22]: 88.1%; viability at 10 µM [11, 23]: 68.5%; viability at 10 µM [12, 24]: 44.5% |
| CCN1CCN(c2cc3c(cc2F)c(=O)c(C(=O)O)cn3C2CC2)CC1 [Enrofloxacin] | 84.8 | significant inhibition effect | 86.6 | 37.4 | 48.6 | 94.5 | 44.5 | 67.5 | 77.9 | 65.2 | 77.2 | 67 | 66.6 |  |
| CCc1cc(C(N)=S)ccn1 [Ethionamide] | 86.5 | significant inhibition effect | 102 | 45.4 | 85.3 | 53.7 | 78.3 | 42.4 | 53.2 | 76.6 | 97.7 | 44.8 | 36.4 |  |
| Clc1cccc(Cl)c1N=C1NCCN1 [Clonidine hydrochloride (Catapres), Clonidine hydrochloride] | 72.1 | significant inhibition effect | 128 | 48.8 | 40.7 | 36.4 | 64.1 | 37.3 | 28.5 | 62.5 | 83.7 | 72 | 68.8 |  |
| COc1ccc2c(c1)c(CC(=O)OCC(=O)O)c(C)n2C(=O)c1ccc(Cl)cc1 [Acemetacin (Emflex), Acemetacin] | 94.7 | significant inhibition effect | 120 | 103 | 90.5 | 69 | 78.2 | 88.1 | 99.4 | 68.4 | 110 | 70.9 | 87.3 |  |
| COc1cc(C)c(/C=C/C(C)=C/C=C/C(C)=C/C(=O)O)c(C)c1C [Acitretin] |  | significant inhibition effect |  |  |  |  |  |  |  |  |  |  |  | viability at 10 µM ([1]; HL-60, 72 h, read-out: cell viability (survival rate), HL-60): 96.7%; viability at 10 µM ([2]; MKN-45, 72 h, read-out: cell viability (survival rate), MKN-45): 78.5%; viability at 10 µM ([3]; 72 h, read-out: cell viability (survival rate), PC3): 92.5%; viability at 10 µM ([4]; 72 h, read-out: cell viability (survival rate), LoVo): 83.6%; viability at 10 µM ([5]; 72 h, read-out: cell viability (survival rate), AGS): 68.1%; viability at 10 µM ([6]; NCI-H1650, 72 h, read-out: cell viability (survival rate), H1650): 43.8%; viability at 10 µM ([7]; A549, 72 h, read-out: cell viability (survival rate), A549): 69.1%; viability at 10 µM ([8]; 72 h, read-out: cell viability (survival rate), TSGH): 127%; viability at 10 µM ([9]; A-375, 72 h, read-out: cell viability (survival rate), A375): 61.4%; viability at 10 µM ([10]; HepG2, 72 h, read-out: cell viability (survival rate), HepG2): 72.6%; viability at 10 µM ([11]; 72 h, read-out: cell viability (survival rate), HeLa): 52.7%; viability at 10 µM ([12]; MCF7, 72 h, read-out: cell viability (survival rate), MCF7): 119% |
